Here are results for 29 molecules from patent publication US8748426B2, “Inhibitors of diacylglycerol acyl transferase” (Piramal Enterprises Limited, priority 2009, dated 2014).

In the first test the target is T1, hDGAT1 (Homo sapiens, UniProt O75907).
T1 sequence (O75907 1-488): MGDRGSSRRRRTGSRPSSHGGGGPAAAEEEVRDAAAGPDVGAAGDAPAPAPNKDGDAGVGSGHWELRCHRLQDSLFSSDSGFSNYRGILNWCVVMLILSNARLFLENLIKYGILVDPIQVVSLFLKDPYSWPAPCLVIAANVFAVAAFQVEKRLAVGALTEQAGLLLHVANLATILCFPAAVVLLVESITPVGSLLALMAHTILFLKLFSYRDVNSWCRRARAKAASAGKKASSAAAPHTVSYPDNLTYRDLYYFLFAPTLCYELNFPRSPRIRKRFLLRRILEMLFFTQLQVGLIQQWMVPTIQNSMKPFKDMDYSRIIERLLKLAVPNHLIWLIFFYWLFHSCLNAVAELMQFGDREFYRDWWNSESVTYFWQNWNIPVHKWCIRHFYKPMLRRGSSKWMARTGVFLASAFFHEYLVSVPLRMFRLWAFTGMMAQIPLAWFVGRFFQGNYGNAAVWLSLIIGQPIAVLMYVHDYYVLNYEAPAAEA
As to the kind of experiment: In-vitro DGAT1 assay (14C oleoyl CoA, hDGAT1 microsomes from Sf9 cells). The following applies: at 1 μM.
Experimental: Sf9 cells were seeded in spinner flasks on day 0 at a cell density of 1×10^6 and infected on day 1 with hDGAT1 baculovirus at a multiplicity of infection (MOI) of 5 and a cell density of 2×10^6. On day 3 (or 66-72 h), cells were harvested and centrifuged at 2500×g for 10 min. Pellet was resuspended in lysis buffer (100 mM sucrose, 50 mM KCl, 40 mM KH2PO4, 30 mM EDTA, pH 7.2) and passed through 21-gauge needle approximately 10 times. […] The supernatant was subjected to centrifugation at 35,000 rpm in a Beckman Ti-45 rotor at 4° C. for 1 h. The resultant pellet containing the microsomes wasere resuspended overnight in 1 mL of lysis buffer and total protein concentration was estimated using Bradford Reagent. Microsomes were aliquoted and stored at −80° C.
Frozen aliquots of hDGAT1 containing microsomes were thawed (5-10 mg/mL total protein) on ice and diluted to a working stock of 1 mg/mL with DGAT Assay Buffer (DAB).
The assay was performed in duplicates in a reaction volume of 100 μL. […] Procedure:
The reaction was started by the addition of 2.5 μL of 1 mg/mL of microsomes (iv) to the mixture and incubated at 37° C. for 10 min. […] The mixture was vortexed and the triglycerides formed were extracted into the organic heptane phase.
Regarding `O=C(Nc1ccc(-c2ccc3c(c2)C(=O)N([C@@H]2CCC[C@@H]2C(=O)O)C3)cc1)c1ccc(-c2ccccc2)cc1` [Example 594, (1S,2R)-2-(6-(4-([1,1′-Biphenyl]-4-ylcarboxamido)phenyl)-1-oxoisoindolin-2-yl)cyclopentanecarboxylic acid], the “% Inhibition of hDGAT1” value was “++ (>50% Inhibition)”. Same read-out and setting: the value for `O=C(Nc1ccc(-c2ccc3c(c2)C(=O)N([C@@H]2CCC[C@@H]2C(=O)O)C3)cc1)c1ccc(C(F)(F)F)cc1` [Example 598, (1S,2R)-2-(1-Oxo-6-(4-(4-(trifluoromethyl)benzamido)phenyl)isoindolin-2-yl)cyclopentanebcarboxylic acid] was “++ (>50% Inhibition)”; that for `CC(C)[C@@H](C(=O)O)N1Cc2ccc(-c3ccc(NC(=O)c4ccc(-c5ccccc5)cc4)cc3F)cc2C1=O` [Example 602, (S)-2-(6-(4-([1,1′-Biphenyl]-4-ylcarboxamido)-2-fluorophenyl)-1-oxoisoindolin-2-yl)-3-methylbutanoic acid] was “++ (>50% Inhibition)”; that for `CC(C)[C@@H](C(=O)O)N1Cc2ccc(-c3ccc(NC(=O)c4cnc5ccccc5c4)cc3)cc2C1=O` [Example 651] was “+ (10-50% Inhibition)”.

Still in this test, the particulars now being: read-out: % Inhibition of hDGAT1.
Usually inhibition stands for the percentage by which the read-out fell short of the control. Turning to `O=C(Nc1ccc(-c2ccc3c(c2)C(=O)N(C2(C(=O)O)CC2)C3)cc1)c1ccc(Cl)cc1` [Example 588, 1-(6-(4-(4-Chlorobenzamido)phenyl)-1-oxoisoindolin-2-yl)cyclopropane carboxylic acid], the inhibition at 1 µM is greater than 50%. The same measure, in the same setting: the value for `O=C(Nc1ccc(-c2ccc3c(c2)C(=O)N(C2(C(=O)O)CC2)C3)cc1)c1ccc(C(F)(F)F)cc1` [Example 590, 1-(1-Oxo-6-(4-(4-(trifluoromethyl)benzamido)phenyl)isoindolin-2-yl)cyclo propane carboxylic acid] was greater than 50%; that for `O=C(Nc1ccc(-c2ccc3c(c2)C(=O)N([C@@H]2CCC[C@@H]2C(=O)O)C3)cc1)c1ccc(Cl)cc1` [Example 596, (1S,2R)-2-(6-(4-(4-Chlorobenzamido)phenyl)-1-oxoisoindolin-2-yl)cyclopentane carboxylic acid] was greater than 50%. In the case of `CC(C)[C@@H](C(=O)O)N1Cc2ccc(-c3ccc(NC(=O)c4ccc(C(C)(C)C)cc4)cc3F)cc2C1=O` [Example 604, (S)-2-(6-(4-(4-(tert-Butyl)benzamido)-2-fluorophenyl)-1-oxoisoindolin-2-yl)-3-methylbutanoic acid], the inhibition at 1 µM is greater than 50%. Same read-out and setting: the value for `CC(C)[C@@H](C(=O)O)N1Cc2ccc(-c3ccc(NC(=O)c4ccc(Cl)cc4)cc3F)cc2C1=O` [Example 606, (S)-2-(6-(4-(4-Chlorobenzamido)-2-fluorophenyl)-1-oxoisoindolin-2-yl)-3-methyl butanoic acid] was 10 to 50%; that for `CC(C)[C@@H](C(=O)O)N1Cc2ccc(-c3ccc(NC(=O)c4ccc(OC(F)(F)F)cc4)cc3F)cc2C1=O` [Example 608, (S)-2-(6-(2-Fluoro-4-(4-(trifluoromethoxy)benzamido)phenyl)-1-oxoisoindolin-2-yl)-3-methylbutanoic acid] was greater than 50%; that for `CCCCCc1ccc(C(=O)Nc2ccc(-c3ccc4c(c3)C(=O)N([C@H](C(=O)O)C(C)C)C4)c(F)c2)cc1` [Example 610, (S)-2-(6-(2-Fluoro-4-(4-pentylbenzamido)phenyl)-1-oxoisoindolin-2-yl)-3-methyl butanoic acid] was greater than 50%. Take `CC(C)[C@@H](C(=O)O)N1Cc2ccc(-c3ccc(NC(=O)c4ncc(-c5ccccc5)s4)cc3)cc2C1=O` [Example 612, (S)-3-Methyl-2-(1-oxo-6-(4-(5-phenylthiazole-2-carboxamido)phenyl)isoindolin-2-yl)butanoic acid]: the inhibition at 1 µM was greater than 50%. The same measure, in the same setting: the value for `CC(C)[C@@H](C(=O)O)N1Cc2ccc(-c3ccc(NC(=O)c4ncc(-c5ccccc5)o4)cc3)cc2C1=O` [Example 614, (S)-3-Methyl-2-(1-oxo-6-(4-(5-phenyloxazole-2-carboxamido)phenyl)isoindolin-2-yl)butanoic acid] was greater than 50%; that for `CC(C)[C@@H](C(=O)O)N1Cc2ccc(-c3ccc(NC(=O)c4cc(-c5ccc(F)cc5)no4)cc3)cc2C1=O` [Example 616, (S)-2-(6-(4-(3-(4-Fluorophenyl)isoxazole-5-carboxamido)phenyl)-1-oxoisoindolin-2-yl)-3-methylbutanoic acid] was greater than 50%.

Consider `CC(C)[C@@H](C(=O)O)N1Cc2ccc(-c3ccc(NC(=O)c4cc(-c5ccc(Cl)cc5)no4)cc3)cc2C1=O` [Example 618, (S)-2-(6-(4-(3-(4-Chlorophenyl)isoxazole-5-carboxamido)phenyl)-1-oxoisoindolin-2-yl)-3-methylbutanoic acid], for which the inhibition at 1 µM is greater than 50%. `CC(C)[C@@H](C(=O)O)N1Cc2ccc(-c3ccc(NC(=O)c4cc(-c5ccc(C(F)(F)F)cc5)no4)cc3)cc2C1=O` [Example 620, (S)-3-Methyl-2-(1-oxo-6-(4-(3-(4-(trifluoromethyl)phenyl)isoxazole-5-carboxamido)phenyl)isoindolin-2-yl)butanoic acid]: the inhibition at 1 µM is greater than 50%.

For `CC(C)[C@@H](C(=O)O)N1Cc2ccc(-c3ccc(NC(=O)c4ccc(-c5cnco5)cc4)cc3)cc2C1=O` [Example 622, (S)-3-Methyl-2-(6-(4-(4-(oxazol-5-yl)benzamido)phenyl)-1-oxoisoindolin-2-yl)butanoic acid], the inhibition at 1 µM was greater than 50%.

In the case of `CC(C)[C@@H](C(=O)O)N1Cc2ccc(-c3ccc(NC(=O)c4nc(-c5ccccc5)cs4)cc3)cc2C1=O` [Example 624, (S)-3-Methyl-2-(1-oxo-6-(4-(4-phenylthiazole-2-carboxamido)phenyl)isoindolin-2-yl)butanoic acid], the inhibition at 1 µM was greater than 50%. Turning to `CC(C)[C@@H](C(=O)O)N1Cc2ccc(-c3ccc(NC(=O)c4nnc(-c5ccccc5)s4)cc3)cc2C1=O` [Example 627, (S)-3-Methyl-2-(1-oxo-6-(4-(5-phenyl-1,3,4-thiadiazole-2-carboxamido)phenyl)isoindolin-2-yl)butanoic acid], the inhibition at 1 µM was greater than 50%.

Take `CC(C)[C@@H](C(=O)O)N1Cc2ccc(-c3ccc(NC(=O)c4nnc(-c5ccccc5)[nH]4)cc3)cc2C1=O` [Example 629, (S)-3-Methyl-2-(1-oxo-6-(4-(5-phenyl-4H-1,2,4-triazole-3-carboxamido)phenyl)isoindolin-2-yl)butanoic acid]: the inhibition at 1 µM was in the range of 10 to 50%. As to `CC(C)[C@@H](C(=O)O)N1Cc2ccc(-c3ccc(NC(=O)c4ccc(C(C)(C)C#N)cc4)cc3)cc2C1=O` [Example 631, (S)-2-(6-(4-(4-(2-Cyanopropan-2-yl)benzamido)phenyl)-1-oxoisoindolin-2-yl)-3-methylbutanoic acid], the inhibition at 1 µM is greater than 50%. As to `CCC(C#N)(CC)c1ccc(C(=O)Nc2ccc(-c3ccc4c(c3)C(=O)N([C@H](C(=O)O)C(C)C)C4)cc2)cc1` [Example 633, (S)-2-(6-(4-(4-(3-Cyanopentan-3-yl)benzamido)phenyl)-1-oxoisoindolin-2-yl)-3-methylbutanoic acid], the inhibition at 1 µM is greater than 50%. In the case of `CC(C)[C@@H](C(=O)O)N1Cc2ccc(-c3ccc(NC(=O)c4ncc(-c5ccccc5)o4)cn3)cc2C1=O` [Example 635, (S)-3-Methyl-2-(1-oxo-6-(5-(5-phenyloxazole-2-carboxamido)pyridin-2-yl)isoindolin-2-yl)butanoic acid], the inhibition at 1 µM was greater than 50%.

On to `CC(C)[C@@H](C(=O)O)N1Cc2ccc(-c3ccc(NC(=O)c4ncc(-c5ccccc5)s4)cn3)cc2C1=O` [Example 637, (S)-3-Methyl-2-(1-oxo-6-(5-(5-phenylthiazole-2-carboxamido)pyridin-2-yl)isoindolin-2-yl)butanoic acid], for which the inhibition at 1 µM was greater than 50%. The same measure, in the same setting: as for `CC(C)[C@@H](C(=O)O)N1Cc2ccc(-c3ccc(NC(=O)c4cc(-c5ccc(F)cc5)no4)cn3)cc2C1=O` [Example 639, (S)-2-(6-(5-(3-(4-Fluorophenyl)isoxazole-5-carboxamido)pyridin-2-yl)-1-oxoisoindolin-2-yl)-3-methylbutanoic acid], the figure is greater than 50%. Same read-out and setting: as for `Cc1oc(-c2ccccc2)nc1C(=O)Nc1ccc(-c2ccc3c(c2)C(=O)N([C@H](C(=O)O)C(C)C)C3)cc1` [Example 643, (S)-3-Methyl-2-(6-(4-(5-methyl-2-phenyloxazole-4-carboxamido)phenyl)-1-oxoisoindolin-2-yl)butanoic acid], the figure is greater than 50%; as for `CC(C)[C@@H](C(=O)O)N1Cc2ccc(-c3ccc(NC(=O)c4ccc(-c5nccs5)cc4)cc3)cc2C1=O` [Example 647, (S)-3-Methyl-2-(1-oxo-6-(4-(4-(thiazol-2-yl)benzamido)phenyl)isoindolin-2-yl)butanoic acid], greater than 50%; as for `CCCCc1ccc(C(=O)Nc2ccc(-c3ccc4c(c3)C(=O)N([C@H](C(=O)O)C(C)C)C4)cc2)nc1` [Example 649, (S)-2-(6-(4-(5-Butylpicolinamido)phenyl)-1-oxoisoindolin-2-yl)-3-methylbutanoic acid], greater than 50%. With `CC(C)[C@@H](C(=O)O)N1Cc2ccc(-c3ccc(NC(=O)c4ccc(-c5cncnc5)cc4)cc3)cc2C1=O` [Example 653, (S)-3-Methyl-2-(1-oxo-6-(4-(4-(pyrimidin-5-yl)benzamido)phenyl)isoindolin-2-yl)butanoic acid], the inhibition at 1 µM was in the range of 10 to 50%.
